From patent US20200222474A1, “COMPOSITIONS AND METHODS FOR INCREASING PHYTOCHEMICAL BIOAVAILABLITY AND BIOACTIVITY” (North Carolina State University, priority 2017, published 2020)

Tested on: L. acidophilus NCFM
Assay: RNA-seq transcriptional analysis of L. acidophilus NCFM growing on plant glycosides
Type: cell-based, Lactobacillus acidophilus
[1] = LBA0329 Putative cell division protein, COG D
[2] = LBA0466 Hypothetical protein, COG C
[3] = LBA0500 MSM operon repressor, COG K
[4] = LBA0545 Hypothetical protein, COG L
[5] = LBA0547 Putative site-specific recombinase, COG L
[6] = LBA0573 Putative transcriptional regulator, COG K
[7] = LBA0607 Putative transcriptional regulator, COG K
[8] = LBA0672 Putative phosphate starvation inducible protein stress related, COG J
[9] = LBA0753 Multi-drug-type permease, COG GEPR
[10] = LBA0886 Sugar kinase-putative transcriptional regulator, COG KG
[11] = LBA0887 Hypothetical protein, COG C
[12] = LBA0897 Putative Cro-like protein, COG K
[13] = LBA0910 L-lactate dehydrogenase, COG C
[14] = LBA1021 Putative transcriptional regulator, COG K
[15] = LBA1220 Pyridine mercuric reductase, COG C
[16] = LBA1392 Mucus binding protein precursor Mub, COG J
[17] = LBA1411 Fumarate reductase flavoprotein subunit, COG CS
[18] = LBA1436 Glycerol uptake facilitator protein, COG G
[19] = LBA1457 Galactose-1-epimerase, COG G
[20] = LBA1458 Galactose-1-phosphate uridylyltransferase, COG G
[21] = LBA1462 Beta-galactosidase, COG G
[22] = LBA1463 Lactose permease, COG G
[23] = LBA1465 Transcription repressor of beta-galactosidasegene, COG K
[24] = LBA1467 Beta-galactosidase large subunit (lactase), COG G
[25] = LBA1468 Beta-galactosidase small subunit, COG G

## OCc1ccccc1O[C@@H]1O[C@H](CO)[C@@H](O)[C@H](O)[C@H]1O [Salicin]
LBA0016 Fructokinase, COG KG
  Log2 differential normalized TPM ratio compared to glucose: 1.7
  Log2 differential normalized TPM ratio compared to lactose: 0.5
  Transcripts per million (rpm): 300.8 rpm
[1]
  Log2 differential normalized TPM ratio compared to glucose: 0.4
  Log2 differential normalized TPM ratio compared to lactose: 0
  Transcripts per million (rpm): 22.1 rpm
[2]
  Log2 differential normalized TPM ratio compared to glucose: 1.3
  Log2 differential normalized TPM ratio compared to lactose: -0.2
  Transcripts per million (rpm): 238.1 rpm
[3]
  Log2 differential normalized TPM ratio compared to glucose: 1.4
  Log2 differential normalized TPM ratio compared to lactose: −0.3
  Transcripts per million (rpm): 138.7 rpm
[4]
  Log2 differential normalized TPM ratio compared to glucose: 1.8
  Log2 differential normalized TPM ratio compared to lactose: −0.3
  Transcripts per million (rpm): 259 rpm
[5]
  Log2 differential normalized TPM ratio compared to glucose: 1.5
  Log2 differential normalized TPM ratio compared to lactose: −0.3
  Transcripts per million (rpm): 32.5 rpm
[6]
  Log2 differential normalized TPM ratio compared to glucose: −1.1
  Log2 differential normalized TPM ratio compared to lactose: −1.2
  Transcripts per million (rpm): 43.7 rpm
[7]
  Log2 differential normalized TPM ratio compared to glucose: 0.8
  Log2 differential normalized TPM ratio compared to lactose: 0.3
  Transcripts per million (rpm): 86.7 rpm
[8]
  Log2 differential normalized TPM ratio compared to glucose: 1.1
  Log2 differential normalized TPM ratio compared to lactose: 0.2
  Transcripts per million (rpm): 3596.1 rpm
[9]
  Log2 differential normalized TPM ratio compared to glucose: 0.5
  Log2 differential normalized TPM ratio compared to lactose: 1.2
  Transcripts per million (rpm): 70.4 rpm
[10]
  Log2 differential normalized TPM ratio compared to glucose: 0.3
  Log2 differential normalized TPM ratio compared to lactose: 0
  Transcripts per million (rpm): 8.1 rpm
[11]
  Log2 differential normalized TPM ratio compared to glucose: 1.5
  Log2 differential normalized TPM ratio compared to lactose: 0.2
  Transcripts per million (rpm): 160.2 rpm
[12]
  Log2 differential normalized TPM ratio compared to glucose: 0.1
  Log2 differential normalized TPM ratio compared to lactose: 2.5
  Transcripts per million (rpm): 2.8 rpm
[13]
  Log2 differential normalized TPM ratio compared to glucose: 1.2
  Log2 differential normalized TPM ratio compared to lactose: 0.2
  Transcripts per million (rpm): 301.8 rpm
[14]
  Log2 differential normalized TPM ratio compared to glucose: −0.5
  Log2 differential normalized TPM ratio compared to lactose: −0.8
  Transcripts per million (rpm): 108.6 rpm
[15]
  Log2 differential normalized TPM ratio compared to glucose: 1.7
  Log2 differential normalized TPM ratio compared to lactose: 0.7
  Transcripts per million (rpm): 654.9 rpm
[16]
  Log2 differential normalized TPM ratio compared to glucose: 0.1
  Log2 differential normalized TPM ratio compared to lactose: 0.3
  Transcripts per million (rpm): 114.4 rpm
[17]
  Log2 differential normalized TPM ratio compared to glucose: 1.4
  Log2 differential normalized TPM ratio compared to lactose: 0.3
  Transcripts per million (rpm): 5.9 rpm
[18]
  Log2 differential normalized TPM ratio compared to glucose: 3.8
  Log2 differential normalized TPM ratio compared to lactose: 0
  Transcripts per million (rpm): 37.6 rpm
[19]
  Log2 differential normalized TPM ratio compared to glucose: 1.9
  Log2 differential normalized TPM ratio compared to lactose: −3.7
  Transcripts per million (rpm): 55.9 rpm
[20]
  Log2 differential normalized TPM ratio compared to glucose: 1.8
  Log2 differential normalized TPM ratio compared to lactose: −3.8
  Transcripts per million (rpm): 48.4 rpm
LBA1459 Galactokinase, COG G
  Log2 differential normalized TPM ratio compared to glucose: 0.8
  Log2 differential normalized TPM ratio compared to lactose: −3.9
  Transcripts per million (rpm): 42.2 rpm
[21]
  Log2 differential normalized TPM ratio compared to glucose: −0.1
  Transcripts per million (rpm): 16.8 rpm
[22]
  Log2 differential normalized TPM ratio compared to glucose: 0.1
  Log2 differential normalized TPM ratio compared to lactose: −4.6
  Transcripts per million (rpm): 62.2 rpm
LBA1464 Transposase, COG L
  Log2 differential normalized TPM ratio compared to glucose: 0
  Log2 differential normalized TPM ratio compared to lactose: −2.4
  Transcripts per million (rpm): 182.7 rpm
[23]
  Log2 differential normalized TPM ratio compared to glucose: −0.1
  Log2 differential normalized TPM ratio compared to lactose: −3.2
  Transcripts per million (rpm): 52.9 rpm
[24]
  Log2 differential normalized TPM ratio compared to glucose: 1.5
  Log2 differential normalized TPM ratio compared to lactose: −7.3
  Transcripts per million (rpm): 14.9 rpm
[25]
  Log2 differential normalized TPM ratio compared to glucose: 1
  Log2 differential normalized TPM ratio compared to lactose: −5.4
  Transcripts per million (rpm): 43.3 rpm
